# In US6107316A, “Method for treating protozoal infections” (priority 1998, dated 2000):
# Read-outs that look alike come from different tables or passages of the source.
# Tests used:
# Giardia lamblia = test: in vitro growth inhibitory activity against Giardia lamblia; assay type: cell-based; details: Giardia duodenalis; concentration required to inhibit growth by 50%
# Method: 35, pp. 2198-2202 (1991). EC50 values for test compounds, expressed in parts per million (ppm), were calculated from dose response curves and are presented in Table 4. As used herein, the terminology "EC50" means the concentration of test compound required to inhibit growth by 50% are compared to a control lacking the test compound. Metronidazole was included as a standard in the tests for comparative purposes.
# Leishmania major = test: in vitro growth inhibitory activity against L. major promastigotes; assay type: cell-based
# Source text: 35, pp. 2198-2202 (1991).
# Tetrahymena pyriformis = test: in vitro growth inhibitory activity against the ciliate Tetrahymena pyriformis; assay type: cell-based, Tetrahymena pyriformis (ATCC strain 30005); details: read-out: EC50 Tetrahymena pyriformis
# Method: Compounds were evaluated for in vitro growth inhibitory activity against the ciliate Tetrahymena pyriformis, which was used as an indicator organism for the Apicomplexia since by several criteria the ciliates and Apicomplexa are closely related (Edlind T. D. et al., Mol. Phylogenet. Evol. vol. 5, pp. 359-367, 1996). T. pyriformis (ATCC strain 30005) was grown in 1 ml ATCC medium 357 at 25° C. in 4 ml polyallomer culture tubes without shaking. Compounds were dissolved in dimethylsufoxide (DMSO) and added to the cultures (containing 3,000 cells/ml) such that the final DMSO concentration was 0.1-0.3%. […] Parasitol. vol. 84, pp. 355-370, 1996) and Cryptosporidium parvum (Arrowood et al., FEMS Microbial. Lett., vol. 136, pp. 245-249, 1996) were tested for comparison.
# Toxoplasma gondii [1] = test: growth inhibition of T. gondii in L929 host cells ([3H]-uracil incorporation); assay type: cell-based; details: L929 host cells; for inhibition at 0.5 µg/mL / inhibition at 5 µg/mL: Toxoplasma gondii, read-out: % Inhibition
# Method: (§1) Compounds were tested for it vitro growth inhibitory activity against Toxoplasma gondii replication in L929 (L929-ATCC CCL 1, mouse connective tissue) or HFF (human foreskin fibroblast) host cells using the [^3 H]-uracil incorporation technique as follows. Host cells were grown in 96-well flat-bottom microtiter plates at 37° C in a 5% carbon dioxide environment in modified Eagle's medium containing penicillin, streptomycin and 10% fetal equine serum. Wells containing a homogeneous confluent monolayer of host cells were infected with T. gondii tachyzoites at a ratio of 3 parasites per cell (approximately 6×10^4 tachyzoites per well containing 100 μl of medium). […] Two hours post infection, the cultures were washed to remove free parasites and the various dilutions of test compound were added. Cells were subsequently collected at 24, 48 and 72 hours. Four hours prior to each harvesting 50 Al of [^3 H]-uracil (1 μCi) was added. Cells were collected using a cell harvester and incorporated radioactivity was measured using a scintillation counter. […]
# Toxoplasma gondii [2] = test: growth inhibition of T. gondii in HFF host cells ([3H]-uracil incorporation); assay type: cell-based; details: HFF host cells; for inhibition at 0.5 µg/mL / inhibition at 5 µg/mL: Toxoplasma gondii, read-out: % Inhibition
# Method: as §1
# Cryptosporidium parvum = test: growth inhibitory activity against C. parvum in host MDBKF5D2 cells (immunofluorescence); assay type: cell-based; details: for % Inhibition: 48 hours
# Method: (§2) Compounds were tested for in vitro growth inhibitory activity against C. parvum grown in host MDBKF5D2 cells and for toxicity towards the host cells as follows. […] To test for toxicity towards the host cells, the media containing test compound (200 μl) were introduced into two wells of a 96 well microtiter plate containing confluent MDBKF5D2 cell monolayers and two wells without monolayers, and incubated at 37° C. in an 8% carbon dioxide environment. After 48 hours, the tetrazolium salt MTS (Owen's solution) and phenazine methosulfate were added to each well at concentrations of 333 μg/ml and 25 μM, respectively. The plate was returned to the incubator in the dark to develop for 2 hours, then 100 μl of each supernatant was transferred to a new microtiter plate and read spectrophotometrically in a plate reader at a wavelength of 490 nm. Percent toxicity was calculated by subtracting the mean optical density (OD) of the drug supernatants from the OD of medium control supernatants (no drug), dividing by the OD of the medium control, and multiplying by 100. To test for growth inhibitory activity against C. parvum, 3×10^4 oocysts per well were incubated in mentioned concentrations of each drug at 37° C. (8% CO2) on confluent MDBKF5D2 cell monolayers in 96 well microtiter plates. After 48 hours, the level of infection in each well was determined by means of an immunofluorescence assay. Percent inhibition of growth was calculated by subtracting the mean parasite count in the wells containing test compound from the mean parasite count in the medium control wells (no test compound), dividing by the mean parasite count in the medium control wells, and multiplying by 100. Paromomycin was included in the test as a standard.
# MDBKF5D2 cells = test: toxicity towards MDBKF5D2 host cells (MTS); details: 48 hours, 2880 min
# Method: as §2
# [3] = cytotoxicity towards L929 host cells (Cell Titer 96); details: mouse, % Inhibition of host cell growth (values in parenthesis)
# Method: (§3) Cytotoxicity of the test compounds towards host cells was determined using the Cell Titer 96™ it (Promega Corporation, Madison, Wis.) as follows. Cells were seeded at a concentration of 5×10^3 cells per well containing 100 μl of medium in 96-well flat-bottom microtiter plates and incubated at 37° C. in a 5% carbon dioxide environment for 4 hours. Dilutions of the test compounds prepared as described above were then added, and incubation continued for 24, 48 or 72 hours. Four hours before each of these time points the growth medium containing test compound was replaced with 100 μl of fresh medium followed by addition of 16 μl of the kit dye solution. After incubation at 37° C. for another 4 hours, 100 μl of the kit solubilization/stop solution was added to each well, the contents of the wells were mixed and the plates kept 1 hour at room temperature. The plates were then read spectrophotometrically in a plate reader at a wavelength of 570 nm. […] Atovaquone was included in the test as a standard.
# [4] = cytotoxicity towards HFF host cells (Cell Titer 96); details: human, % Inhibition of host cell growth (values in parenthesis)
# Method: as §3
# [5] = toxicity towards MDBKF5D2 host cells (MTS); details: bovine, mdbkf5d2 cells, Cytotoxicity (percent toxicity)
# Method: as §2
structure (smiles),measurement,setting,value
CCC(C)(NC(=O)c1cc(Cl)cc(Cl)c1)C(=O)CN=C=S (stereo not shown) [Compound 8],EC50,Giardia lamblia,0.2 µg/mL
same,EC50,Leishmania major,0.7 µg/mL
same,EC50,Tetrahymena pyriformis; 24 h,0.07 µg/mL
CCC(C)(NC(=O)c1cc(Cl)cc(Cl)c1)C(=O)CCl (stereo not shown) [Compound 13],% Inhibition,"Toxoplasma gondii [1]; 0.5 μg/ml, 24 hours",11.6%
same,% Inhibition,"Toxoplasma gondii [1]; 0.5 μg/ml, 48 hours",33.2%
same,% Inhibition,"Toxoplasma gondii [1]; 0.5 μg/ml, 72 hours",0%
same,% Inhibition,"Toxoplasma gondii [1]; 5.0 μg/ml, 24 hours",11.4%
same,% Inhibition,"Toxoplasma gondii [1]; 5.0 μg/ml, 48 hours",83.9%
same,% Inhibition,"Toxoplasma gondii [1]; 5.0 μg/ml, 72 hours",88.5%
same,% Inhibition,"Toxoplasma gondii [2]; 0.5 μg/ml, 24 hours",72.3%
same,% Inhibition,"Toxoplasma gondii [2]; 0.5 μg/ml, 48 hours",28.1%
same,% Inhibition,"Toxoplasma gondii [2]; 0.5 μg/ml, 72 hours",0%
same,% Inhibition,"Toxoplasma gondii [2]; 5.0 μg/ml, 24 hours",93.0%
same,% Inhibition,"Toxoplasma gondii [2]; 5.0 μg/ml, 48 hours",98.2%
same,% Inhibition,"Toxoplasma gondii [2]; 5.0 μg/ml, 72 hours",97.8%
same,% Inhibition,Cryptosporidium parvum; 0.1 μM,9.9%
same,% Inhibition,Cryptosporidium parvum; 1.0 μM,12.5%
same,% Inhibition,Cryptosporidium parvum; 10 μM,15.7%
same,inhibition at 100 µM,"Cryptosporidium parvum; Cryptosporidium parvum, 48 h",87.5%
same,Cytotoxicity (percent toxicity),MDBKF5D2 cells; 0.1 μM,0%
same,Cytotoxicity (percent toxicity),MDBKF5D2 cells; 1.0 μM,2.4%
same,Cytotoxicity (percent toxicity),MDBKF5D2 cells; 10 μM,4.3%
same,Cytotoxicity (percent toxicity),MDBKF5D2 cells; 100 μM,54.3%
CCC(C)(NC(=O)c1cc(Br)c(N)c(Br)c1)C(=O)CCl (stereo not shown) [Compound 14],inhibition at 0.5 µg/mL,"Toxoplasma gondii [1]; L929, 24 h, 0.5 μg/ml, 24 hours",29.3%
same,inhibition at 5 µg/mL,"Toxoplasma gondii [1]; L929, 24 h, 5.0 μg/ml, 24 hours",6.9%
same,inhibition at 0.5 µg/mL,"Toxoplasma gondii [1]; L929, 48 h, 0.5 μg/ml, 48 hours",79.8%
same,inhibition at 5 µg/mL,"Toxoplasma gondii [1]; L929, 48 h, 5.0 μg/ml, 48 hours",61.2%
same,inhibition at 0.5 µg/mL,"Toxoplasma gondii [1]; L929, 72 h, 0.5 μg/ml, 72 hours",84.9%
same,inhibition at 5 µg/mL,"Toxoplasma gondii [1]; L929, 72 h, 5.0 μg/ml, 72 hours",79.7%
same,inhibition at 0.5 µg/mL,"Toxoplasma gondii [2]; 24 h, 0.5 μg/ml, 24 hours",63.9%
same,inhibition at 5 µg/mL,"Toxoplasma gondii [2]; 24 h, 5.0 μg/ml, 24 hours",87.4%
same,inhibition at 0.5 µg/mL,"Toxoplasma gondii [2]; 48 h, 0.5 μg/ml, 48 hours",96.1%
same,inhibition at 5 µg/mL,"Toxoplasma gondii [2]; 48 h, 5.0 μg/ml, 48 hours",99.7%
same,inhibition at 0.5 µg/mL,"Toxoplasma gondii [2]; 72 h, 0.5 μg/ml, 72 hours",77.8%
same,inhibition at 5 µg/mL,"Toxoplasma gondii [2]; 72 h, 5.0 μg/ml, 72 hours",99.1%
same,inhibition at 24 h,"[3]; L929, 0.5 μg/ml",8.9%
same,inhibition at 48 h,"[3]; L929, 0.5 μg/ml",0%
same,inhibition at 72 h,"[3]; L929, 0.5 μg/ml",0%
same,inhibition at 24 h,"[3]; L929, 5.0 μg/ml",21.8%
same,inhibition at 48 h,"[3]; L929, 5.0 μg/ml",58.7%
same,inhibition at 72 h,"[3]; L929, 5.0 μg/ml",77.6%
same,inhibition at 24 h,[4]; 0.5 μg/ml,4.1%
same,inhibition at 48 h,[4]; 0.5 μg/ml,3.7%
same,inhibition at 72 h,[4]; 0.5 μg/ml,0%
same,inhibition at 24 h,[4]; 5.0 μg/ml,5.8%
same,inhibition at 48 h,[4]; 5.0 μg/ml,31.8%
same,inhibition at 72 h,[4]; 5.0 μg/ml,53.6%
same,inhibition at 0.1 µM,"Cryptosporidium parvum; Cryptosporidium parvum, 48 h, 0.1 μM",2.1%
same,inhibition at 1 µM,"Cryptosporidium parvum; Cryptosporidium parvum, 48 h, 1.0 μM",11.3%
same,inhibition at 10 µM,"Cryptosporidium parvum; Cryptosporidium parvum, 48 h, 10 μM",35.4%
same,inhibition at 100 µM,"Cryptosporidium parvum; Cryptosporidium parvum, 48 h",86.7%
same,"cytotoxicity at 48 h, 0.1 µM",[5]; 0.1 μM,21%
same,"cytotoxicity at 48 h, 1 µM",[5]; 1.0 μM,6.1%
same,"cytotoxicity at 48 h, 10 µM",[5]; 10 μM,3.9%
same,"cytotoxicity at 48 h, 100 µM",[5]; 100 μM,22.3%
CCC(C)(NC(=O)c1cc(Cl)c2ncoc2c1)C(=O)CCl (stereo not shown) [Compound 16],EC50,Giardia lamblia,2 µg/mL
same,EC50,Leishmania major,7 µg/mL
same,EC50,"Tetrahymena pyriformis; 24 hours, 25° C.",0.6 µg/mL
